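All cell lines were grown in 96-well plates and treated with compound for 48 hours. Here, GI50 denotes the concentration required for 50% inhibition of growth.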 The source made the active and inactive calls. No stated cut-off is given here; in the data, active = GI50 up to about 1.1 µM and inactive = higher.
How the values were obtained:
Assay in all cases: NCI anticancer screen, dose series, 48 h
HCT-116 = system: HCT-116
SK-MEL-28 = system: SK-MEL-28
NCI-H460 = system: NCI-H460
HT-29 = system: HT-29
RXF 393 = system: RXF 393
KM12 = system: KM12
A498 = system: A498
HOP-92 = system: HOP-92
OVCAR-5 = system: OVCAR-5
MOLT-4 = system: MOLT-4
SK-OV-3 = system: SK-OV-3
CAKI-1 = system: CAKI-1
K562 = system: K562
OVCAR-4 = system: OVCAR-4
SF-268 = system: SF-268
UACC-257 = system: UACC-257
SNB-19 = system: SNB-19
HOP-62 = system: HOP-62
SNB-75 = system: SNB-75
RPMI-8226 = system: RPMI-8226

COC(=O)c1cccc(N[C@@H]2c3cc4c(cc3C(c3cc(OC)c(O)c(OC)c3)[C@H]3C(=O)OCC32)OCO4)c1 (stereo not given in full)
GI50 (HCT-116): 682 nM (active) | GI50 (SK-MEL-28): 2670 nM (inactive) | GI50 (NCI-H460): 35.1 nM (active) | GI50 (HT-29): 1690 nM (inactive) | GI50 (RXF 393): 1330 nM (inactive) | GI50 (KM12): 2370 nM (inactive) | GI50 (A498): 635 nM (active) | GI50 (HOP-92): 1060 nM (active) | GI50 (OVCAR-5): 6670 nM (inactive) | GI50 (MOLT-4): 32.8 nM (active) | GI50 (SK-OV-3): 2860 nM (inactive) | GI50 (CAKI-1): 321 nM (active) | GI50 (K562): 902 nM (active) | GI50 (OVCAR-4): 7080 nM (inactive) | GI50 (SF-268): 1400 nM (inactive) | GI50 (UACC-257): 659 nM (active) | GI50 (SNB-19): 755 nM (active) | GI50 (HOP-62): 239 nM (active) | GI50 (SNB-75): 1870 nM (inactive) | GI50 (RPMI-8226): 1370 nM (inactive)

Reference: ChEMBL document CHEMBL1201862, “PubChem BioAssay data set” (2004)
